These results are taken from paper PMC13042316 (Open journal of immunology, 2011).

Each structure is given as a SMILES string.

Usually IC50 stands for the point on the concentration scale where inhibition reaches its midpoint.

This test concerns the target recombinant human MBL (mannose-binding lectin) (Homo sapiens, UniProt P11226). The test is described as follows: ELISA, inhibition of MBL binding to immobilised mannan.

recombinant human MBL (mannose-binding lectin), sequence (P11226 21-248): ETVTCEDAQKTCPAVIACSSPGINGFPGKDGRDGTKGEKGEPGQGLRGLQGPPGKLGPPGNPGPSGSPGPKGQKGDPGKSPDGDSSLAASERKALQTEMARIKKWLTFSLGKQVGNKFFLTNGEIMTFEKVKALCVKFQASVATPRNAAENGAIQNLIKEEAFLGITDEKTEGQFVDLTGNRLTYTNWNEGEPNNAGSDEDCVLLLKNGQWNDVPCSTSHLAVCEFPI

Turning to `OC[C@H]1O[C@@](CO)(O[C@H]2O[C@H](CO)[C@@H](O)[C@H](O)[C@H]2O)[C@@H](O)[C@@H]1O` [sucrose], the IC50 is more than 11 mM.
